Type in all cases: in vivo
The test system of test [1] is ICR mice. As to the kind of experiment: Bleomycin-induced pulmonary fibrosis in mice: lung hydroxyproline content. The conditions noted are these: extract 1.0 g/kg; AH, BH, DH 50 mg/kg; p<0.001. The method, then: (§1) Mice were divided into fifth groups with 5 animals per group according to body weight: control group, BLM group, BLM+DEX group (7.5 mg/kg), BLM+ACH dosage group (50 mg/kg), and BLM+ACM dosage group (25 mg/kg), BLM+ACH dosage group (50 mg/kg), and BLM+ACM dosage group (25 mg/kg) BLM+AH dosage group (50 mg/kg), and BLM+AM dosage group (25 mg/kg) BLM+BH dosage group (50 mg/kg), and BLM+BM dosage group (25 mg/kg) BLM+CH dosage group (50 mg/kg), and BLM+CM dosage group (25 mg/kg) BLM+DH dosage group (50 mg/kg), and BLM+DM dosage group (25 mg/kg) BLM+EH dosage group (50 mg/kg), and BLM+EM dosage group (25 mg/kg) BLM. Pulmonary fibrosis (PF) was established in mice via a single intratracheal administration of BLM at 7.5 mg/kg mg/kg body weight. Different doses of samples were intragastrically administered daily for 21 days after BLM injury, and DEX was used as the positive control. Control and model groups received an equal volume of vehicle (0.9% NaCl) using the same schedule and route of administration.
The contents of hydroxyproline were analyzed in lung tissue following the instruction of hydroxyproline assay kit (Biosource International Inc., Sunnyvale, Calif., USA). The pulmonary tissues of mice were ground and homogenized with 1 ml of 6 mol/L […] solution, hydrolyzed at 95° C. for 5 hours, and the pH value was adjusted to 6.0-6.8. According to the instructions, the corresponding reagents were added to the reaction system and mixed thoroughly and then incubated for 15 minutes at 60° C. After cooling, the supernatants were collected after centrifuging at 3500 rpm for 10 minutes. The absorbance value of the supernatant from the samples was measured at 550 nm by a spectrophotometer and calculated for the contents of hydroxyproline on each group.

Another test concerns MPO. The test can be described thus: Bleomycin-induced pulmonary fibrosis in mice: lung myeloperoxidase (MPO) assay. The conditions noted are these: compared with BLM group, p<0.001. The method, then:
as §1
The pulmonary MPO activity was a reliable index for estimating the infiltration of inflammatory cells in lungs. The lung tissues were homogenized and the MPO levels were detected with the kits according to manufacturer's instruction.

For the next test, the system named is C57BL/6 mice. The test can be described thus: Cisplatin-induced renal injury in mice: serum CRE and BUN. The conditions noted are these: extracts at 1000 mg/kg; compared to cisplatin-stimulated group, p<0.001. The method, then:
Determination of biochemical parameters Serum creatinine and serum urea are assessed using colorimetric kits according to manufacturer's instructions. Kits of the former markers are purchased from (HUMAN Diagnostics Worldwide, Magdeburg, Germany) with a chemical analyzer (Roche Diagnostics, Cobas Mira Plus, Rotkreuz, Switzerland).
Seven-to-eight-week-old male C57BL/6 mice are obtained from the BioLASCO Taiwan Co., Ltd. (Taipei, Taiwan). The animals are housed in Plexiglas cages at a constant temperature of 22±1° C. and a relative humidity of 55±5% on a 12 h dark-light cycle for at least 2 weeks before the experiment. Animals are provided food and water ad libitum. All experimental procedures are performed according to the guidelines of the Institutional Animal Ethics Committee, and the protocol is approved by the Committee for the Purpose of Control and Supervision of Experiments on Animals.
Renal fibrosis is induced via multiple injections of low-dose cisplatin. Intraperitoneal injections of cisplatin (5 mg/kg/injection; P4394, Sigma-Aldrich, St Louis, Mo.) are performed at 0, 1, and 3 weeks, for a total of 3 injections. Mice are sacrificed at 6 weeks after the first dose of cisplatin (n=6). To analyze the effects of samples, mice are given daily intraperitoneal injections for 7 days, starting from 4 weeks after first dose of cisplatin, and sacrificed at […] (n=6).

The subject of test [2] is New Zealand White rabbits. The test can be described thus: Hypercholesterolemic rabbit model: liver histology scores (steatosis, inflammation, fibrosis). Also noted: key to Score of Fibrosis: 0: none; 1: mild perisinusoidal or periportal; 2: perisinusoidal and portal/periportal; 3: bridging fibrosis; 4: cirrhosis; key to Score of Steatosis Location: 0: zone 3, centrilobular; 1: zone 2, mid-zonal; 3: panacinar. The note with it: individual liver slides; 0.5% cholesterol chow plus 10 mg/kg Lovastatin, 1% ARH003, 1% ARH004 or 10 mg/kg AR101-DS2; 12-week study.

Test [3] has as its system ICR mice. The test can be described thus: Bleomycin-induced pulmonary fibrosis in mice: body weight, lung weight, lung index. The note with it: for Pulmonary index: (lung weight/body weight)×100. The method, then:
Specific pathogen-free ICR mice (males) (body weights 18-22 g) were purchased from the BioLASCO Taiwan Co., Ltd. (Taipei, Taiwan). The animals were housed in Plexiglas cages at a constant temperature of 22±1° C. and a relative humidity of 55±5% on a 12 h dark-light cycle for at least 2 weeks before the experiment. Animals were provided food and water ad libitum. All experimental procedures were performed according to the guidelines of the Institutional Animal Ethics Committee, and the protocol was approved by the Committee for the Purpose of Control and Supervision of Experiments on Animals.
as §1
Mouse body weights were recorded daily. Mice were sacrificed on the 21th day using excess chloral hydrate hydrochloride anesthesia. Blood was obtained for ELISA analyses, and whole lungs were removed and weighed. The right lungs were fixed in 10% formalin, dehydrated, and embedded in paraffin. The left lungs were used to determine hydroxyproline. The pulmonary coefficient was calculated using the following equation: lung weight/body weight×100%
1. Group I: control; 2. Group II: mice received single intraperitoneal injection of BLM (7.5 mg/kg BW) 3. Group III: single dose (ACH, 0.5 g/kg) 4. Group IV: Single dose (ACM, 1.0 g/kg) 5. […] Group VII: purified AR101-DS2 (50 mg/kg) 8. Group VIII: purified AR101-DS2 (25 mg/kg) 7. Group VII: purified AR101-DS4 (50 mg/kg) 8. Group VIII: purified AR101-DS4 (25 mg/kg) 7. […] Group VII: purified ARH013-RA1 (50 mg/kg) 8. Group VIII: purified ARH013-RA1 (25 mg/kg)

Test [4] deals with TNF-α, IL-1β, IL-6 and TGF-β. As to the kind of experiment: Bleomycin-induced pulmonary fibrosis in mice: pro-inflammatory cytokines by ELISA. The note with it: extract 1.0 g/kg; BH, DH 50 mg/kg; after BLM challenge; p<0.001. The method, then: as §1, with “administration. […]” for “administration.”
The serum concentration of the pro-inflammatory cytokines (i.e. tumor necrosis factor-α (TNF-α), interleukin-6 (IL-6), and IL-1β) in serum were assessed with relevant enzyme-linked immunosorbent assay (ELISA) kits (Biosource International Inc., Sunnyvale, Calif., USA), based on the manufacturer's instructions.
(ELISA stands for enzyme-linked immunosorbent assay.)

Where [5] appears, read: 25 mg/kg intragastric daily for 21 days after BLM.
[6] abbreviates: 50 mg/kg intragastric daily for 21 days after BLM.

The record followed here is patent US20230201221A1, “USE OF TERPENOIDS IN THE TREATMENT OR PREVENTION OF FIBROTIC DISEASES” (ARJIL BIOTECH HOLDING COMPANY LIMITED, priority 2020, published 2023).

“And” between values parts separate entries of the source, which are not always exact repeats. Equal entries are not always repeated.

On to `C=C(CC[C@@H](C)[C@H]1CC[C@H]2C3=C(C(=O)C[C@]12C)[C@@]1(C)CC[C@@H](O)[C@](C)(O)[C@@H]1C[C@@H]3O)[C@@H](C)C(=O)O` (racemic) [AR101-DS1, RS-Antcin K], for which the “hydroxyproline (HP) content in lung tissue” value with ICR mice [1] was “reduced lung HP”. The “lung MPO activity” value in the test with MPO is “evidently suppressed the MPO activities”.
Take `C=C(CC[C@@H](C(=O)O)[C@H]1CC[C@@]2(C)C3=CC[C@H]4C(C)(C)[C@@H](O)CC[C@]4(C)C3=CC[C@]12C)C(C)C` [AR101-DS4, Dehydroeburicoic Acid]: the “renal protection: normalization of serum CRE and BUN” value in the test with C57BL/6 mice was “significant renal protection effect”.
`CC[C@H](C)C(=O)O[C@H]1C[C@@H](C)C=C2C=C[C@H](C)[C@H](CC[C@@H]3C[C@@H](O)CC(=O)O3)[C@H]21` [L, Lovastatin, reference compound]: in test [2], the “Score of Fibrosis” value is 0 (2×) and 1; the “Score of Inflammation” value was 1 (mild, 2 foci per 200 field) and 0 and 2 (moderate, 2-4 foci per 200 field); the “Score of Steatosis Grade” value was 2 (33-66%) (2×) and 0 (low- to medium-power evaluation of parenchymal involvement <5%); the “Score of Steatosis Location” value is 1 (2×) and 0.
Consider “Dehydrosulphurenic acid/Sulphurenic acid [AR101-DS2]”, for which, in test [2], the “Score of Fibrosis” value is recorded as 0; the “Score of Inflammation” value was 1 (mild, 2 foci per 200 field) (2×) and 2 (moderate, 2-4 foci per 200 field); the “Score of Steatosis Grade” value was 3 (>66%) (2×) and 1 (5-33%); the “Score of Steatosis Location” value is 2 and 1 and 0. In addition, in the test with ICR mice [1], the “hydroxyproline (HP) content in lung tissue” value is “reduced lung HP”. In the test with ICR mice [3] (setting [5]), the Final body mass came to 37.91 ± 0.30 g, the Pulmonary mass was 0.48 ± 0.01 g and the Pulmonary index came out at 1.26 ± 0.03. In the test with ICR mice [3] (setting [6]), this compound yielded a Final body mass of 39.7 ± 0.21 g, a Pulmonary mass of 0.39 ± 0.01 g and a Pulmonary index of 1.01 ± 0.02. Also, the “lung index, result in words” value with ICR mice [3] (high-dose groups (ACH 1.0 g/kg; BH, DH 50 mg/kg), vs bleomycin-administered animals) is recorded as “significant decrease in the lung index”. The “lung MPO activity” value in the test with MPO was “evidently suppressed the MPO activities”. The “TNF-α, IL-1β, IL-6 and TGF-β production” value in test [4] is “improved TNF-α, IL-1β, IL-6 and TGF-β production”.
